The test system of one assay is Mouse 3T3-L1 cells. Kind of assay: Lipolysis promoting effect: glycerol release from mature adipocytes. The settings on record: test concentration 0.10% by mass; 90 minutes; norepinephrine 3×10^−8 mol/L; control = 100. Type of assay: cell-based. As to the method: Mouse 3T3-L1 cells purchased from Dainippon Pharmaceutical Co., Ltd. were cultured in a 24-well culture plate according to the method of […], et al. ([…]. et al., Biochim. Biophys. Acta., 1581: 36-48 (2002)) at 37° C. in a 5% (v/v) CO2 atmosphere, and these cells were used in the test as mature adipocytes. Test media were prepared by adding test samples at predetermined concentrations to DMEM medium containing bovine serum albumin and norepinephrine (final concentration: 3×10^-8 mol/L). The said mature adipocytes were cultured in the test media for 90 minutes to be reacted with the test samples. Following the reaction, the glycerol released into the media was quantified by […] using the F Kit Glycerol (Roche). The lipolysis promotion rate was calculated according to the equation below based on the quantified glycerol values to serve as an indicator of lipolysis promoting effect: Lipolysis promotion rate(%)=[A/B]×100 (wherein A represents the amount of glycerol with addition of test sample, and B represents the amount of glycerol of a control (without addition of test sample)). (Test Results) […] Zingerone and caffeine were used as comparative controls.

A further assay concerns photoaged skin. Kind of assay: Wrinkle ameliorative effect: wrinkle score in photo-aged hairless mice. Type of assay: in vivo. Conditions: Results 1; 1.0% sample in 50% aqueous ethanol, 0.1 ml once a day, five times a week on dorsal skin; score 0-3; base only 2.65 ± 0.08; listed as Example 2. As to the method:
Samples containing 1.0% each of the guinea ginger extract, paradol or acetylated guinea ginger extract obtained in Production Examples 1 to 3 were prepared, using a 50% aqueous ethanol solution for the base (Example 1, 2 or 3, respectively), and wrinkle ameliorative effects on photoaged skin were investigated using the test method described below. Hairless mice, 10 weeks old at the start of the test, were used in groups of 10 animals each. Photo-aging was induced by irradiating skin with UVA and UVB once a day, five times a week for eight weeks. The irradiated doses were 20, 25 and 30 J/cm^2 for UVA and 20, 30 and 40 mJ/cm^2 for UVB. The doses were elevated every week, and the skin was irradiated at the maximum doses after the third week. Wrinkle ameliorative effect was evaluated using a wrinkle score and a dermal collagen level. The wrinkle score was determined according to the method of Bissett, et al. (Photochem. Photobiol., 46: 367-378, 1987). Namely, the size and depth of wrinkles were comprehensively evaluated macroscopically, and evaluated according to one of four levels consisting of a score of 3 for “large, deep wrinkles able to be confirmed”, 2 for “wrinkles able to be confirmed”, 1 for “wrinkles unable to be confirmed” and 0 for “normal skin texture observed”. […] Wrinkle scores were then determined following completion of the final application. […]

For the compound `COc1cc(CCC(C)=O)ccc1O` [Zingerone], the “Lipolysis promotion rate (%) (mean ± SE)” value with Mouse 3T3-L1 cells is listed as 191.85 ± 69.83%.

Consider `Cn1c(=O)c2c(ncn2C)n(C)c1=O` [Caffeine], for which the “Lipolysis promotion rate (%) (mean ± SE)” value in the assay with Mouse 3T3-L1 cells is recorded as 234.93 ± 11.23%.

Take `CCCCCCCC(=O)CCc1ccc(O)c(OC)c1` [Paradol, 1-(4′-hydroxy-3′-methoxyphenyl)-3-decanone]: in the assay with photoaged skin, the “Wrinkle Score (mean ± SE)” value came out at 2.40 ± 0.23. For the same compound, in the assay on Mouse 3T3-L1 cells, the “Lipolysis promotion rate (%) (mean ± SE)” value is reported as 554.68 ± 107.62%.

Values taken from US8445005B2, “Antiwrinkle agent, lipolysis promoter, external composition for skin and food and beverage composition” (Kao Corporation, priority 2004, dated 2013).
